# Columns and labels:
# Assay type in all cases: physicochemical
# [1] = DLS particle size and PDI of hydrocortisone derivatives milled with Pluronic F127 (Examples 8, 9); conditions: for PDI of milled suspension / Size (Z-averaged) of milled suspension: 5% compound, 5% F127 in PBS pH 7.1, milled 25 hours; for Milled suspension PDI / Milled suspension Size (Z-average): final form B
# Method: (§1) A milling procedure was employed in which aqueous dispersions containing coarse compound particles were individually milled with F127 at near-neutral pH buffer using a grinding medium. Briefly, a slurry containing 5% of compound and 5% F127 in PBS (0.0067 M PO4^3−), pH 7.1 was added to an equal bulk volume of 1-mm ceria-stabilized zirconium oxide beads in a glass vial (e.g., 2 mL of slurry per 2 mL of beads). A magnetic stir bar was used to agitate the beads, stirring at approximately 500 rpm at ambient conditions for 25 hours.
# The milled suspensions were subjected to dynamic light scattering (DLS) measurements to determine particle size and polydispersity index (PDI, a measure of the width of the particle size distribution). The samples for DLS measurements were buffered with HyClone™ PBS (Phosphate-Buffered Saline) to produce isotonic samples that have a physiologically relevant pH.
# Form 3-B was wet-milled using the same method that generated the data in Tables 13 and 14.
# [2] = HPLC chemical purity of milled suspensions (stability to milling)
# Method: as §1
# The HPLC method used to determine the purity of milled suspensions is as follows: column—SunFire™ C18, 3.5 μm, 3.0×150 mm, column temperature—40° C., flow rate—0.7 mL/min, detection wavelength—254 nm, flow gradient—50:50 (0 minutes) to 0:100 (10 minutes) 0.1% phosphoric acid/H2O:acetonitrile.
# [3] = XRPD crystal form before and after milling; conditions: milled with F127
# Description: Particles were isolated by centrifugation, then resuspended in H2O and then recentrifuged. The wet sample was resuspended in H2O and deposited thinly and evenly onto a flat zero background sample holder (Rigaku 906165). The sample was allowed to air dry.
# Milligram amounts were packed as an evenly thin layer of solid onto a zero background sample holder (Rigaku 906165).
# XRPD patterns were obtained using a Rigaku MiniFlex 600 benchtop x-ray diffractometer equipped with a Cu X-ray tube (Cu/Kα=1.54059 Å), a six-position sample changer and a D/teX Ultra detector. […] Diffraction patterns were viewed and analyzed using PDXL analysis software provided by the instrument manufacturer. A reference standard silicon powder (NIST Standard Reference Material 640d) generated a peak at 28.43° and 28.45° two theta when samples were prepared as suspension in H2O (to simulate Procedure A) and Procedure B, respectively.
# Except for Crystalline Form 1-B, the XRPD samples of all other forms were prepared using Procedure A (milled compounds) or Procedure B (neat compounds). […] was used to prepare the XRPD sample of Crystalline Form 1-B.
# All input crystalline forms were arbitrarily designated as “A” forms. New forms that emerged after milling, if any, were sequentially designated as “B”, “C”, etc. An “A” form was not designated for Compound 2 since the input material was amorphous.
# [4] = DLS particle size and PDI of drugs milled with F127 or SDS (Example 6)
# Description: The technique described in Example 1 was applied to other non-polymeric solid particles to show the versatility of the approach. […] Table 12 lists the particle sizes for a representative selection of drugs that were milled using this method.
# [5] = drug milled with stabilizer F127
# [6] = drug milled with stabilizer SDS
"PDI [4, 5]","Z-Ave D [4, 5]","PDI [4, 6]","Z-Ave D [4, 6]",Structure (SMILES),Size (Z-averaged) of milled suspension [1],Purity after milling ([2]; after milling with F127),Crystal form change after milling of Input forms? [3],other results
–,–,–,–,"C[C@]12CCC(=O)C=C1CC[C@@H]1[C@@H]2[C@@H](O)C[C@@]2(C)[C@H]1CC[C@]2(OC(=O)CCS(=O)(=O)c1ccccc1)C(=O)CO [Compound 1, (10R,11S,13S,17R)-11-hydroxy-17-(2-hydroxyacetyl)-10,13-dimethyl-3-oxo-2,3,6,7,8,9,10,11,12,13,14,15,16,17-tetradecahydro-1H-cyclopenta[a]phenanthren-17-yl 3-(phenylsulfonyl)propanoate]",509 nm,<90%,Yes,"PDI of milled suspension [1]: 0.318; Purity after milling ([2]; after milling with F127, listed as 7): < 90%"
–,–,–,–,"C[C@]12CCC(=O)C=C1CC[C@@H]1[C@@H]2[C@@H](O)C[C@@]2(C)[C@H]1CC[C@]2(OC(=O)c1ccco1)C(=O)CO [Compound 2, (10R,11S,13S,17R)-11-hydroxy-17-(2-hydroxyacetyl)-10,13-dimethyl-3-oxo-2,3,6,7,8,9,10,11,12,13,14,15,16,17-tetradecahydro-1H-cyclopenta[a]phenanthren-17-yl furan-2-carboxylate]",238 nm,>96%,No,–
–,–,–,–,"C[C@]12CCC(=O)C=C1CC[C@@H]1[C@@H]2[C@@H](O)C[C@@]2(C)[C@H]1CC[C@]2(OC(=O)Cc1ccc(Br)cc1)C(=O)CO [Compound 3, (10R,11S,13S,17R)-11-hydroxy-17-(2-hydroxyacetyl)-10,13-dimethyl-3-oxo-2,3,6,7,8,9,10,11,12,13,14,15,16,17-tetradecahydro-1H-cyclopenta[a]phenanthren-17-yl 2-(4-bromophenyl)acetate]",341 nm,>96%,Yes,PDI of milled suspension [1]: 0.197; Milled suspension PDI ([1]; input form A): 0.197; Milled suspension Size (Z-average) ([1]; input form A): 341 nm; Milled suspension PDI ([1]; input form B): 0.154; Milled suspension Size (Z-average) ([1]; input form B): 262 nm
0.114,203 nm,0.193,202 nm,CCC(=O)O[C@]1(C(=O)SCF)[C@H](C)C[C@H]2[C@@H]3C[C@H](F)C4=CC(=O)C=C[C@]4(C)[C@@]3(F)[C@@H](O)C[C@@]21C [Fluticasone propionate],–,–,–,–
0.119,217 nm,0.146,200 nm,NS(=O)(=O)c1cc(C(=O)O)c(NCc2ccco2)cc1Cl [Furosemide],–,–,–,–
0.123,225 nm,0.154,216 nm,COc1ccc2c(c1)c(CC(=O)O)c(C)n2C(=O)c1ccc(Cl)cc1 [Indomethacin],–,–,–,–
0.123,241 nm,0.130,241 nm,CCOC(=O)O[C@]1(C(=O)OCCl)CC[C@H]2[C@@H]3CCC4=CC(=O)C=C[C@]4(C)[C@H]3[C@@H](O)C[C@@]21C [Loteprednol etabonate],–,–,–,–
0.090,273 nm,0.120,245 nm,C[C@]12C=CC(=O)C=C1CC[C@@H]1[C@@H]2[C@@H](O)C[C@@]2(C)[C@H]1CC[C@]2(O)C(=O)CO [Prednisolone],–,–,–,–

# Reference: patent US20190216726A1, “Particles, Compositions and Methods for Ophthalmic and/or Other Applications” (priority 2016, published 2019)
